Read-outs that look alike come from different tables or passages of the source.
Tests used:
[1] = molecular target: Axl phosphorylation in 293MSR-AxlWT6 cells (Homo sapiens (Human), UniProt P30530); experiment: Cellular Axl phosphorylation ELISA assay (Gas6-stimulated 293MSR-AxlWT6 cells); assay type: cell-based; details: read-out: CELL AXL IC50
Procedure: Cellular Axl Phosphorylation ELISA Assay
After 6-7 hrs in tissue culture incubator at 37° C. 5% CO2, medium was removed, serum-free medium was added (with 0.04% bovine serum albumin) and plates were returned to incubator where they remained overnight. […] Media was then removed and lysis buffer was added to wells and shaken at 4° C. for 30 min to generate protein lysates. Subsequently, phosphorylation of Axl was assessed by a sandwich ELISA method using a DuoSet IC Human Phospho-Axl ELISA assay kit (R&D System), an immobilized mouse anti-human Axl antibody and an anti-phospho-tyrosine-HRP antibody as a detection antibody. Antibody-coated plates were (a) incubated in presence of protein lysates at room temperature for 2 hrs, (b) washed seven times in 0.1% Tween 20 in PBS, (c) incubated with secondary antibody (a horseradish peroxidase-conjugated […]) for 2 hrs, (d) washed seven times again, (e) TMB peroxidase substrate (Bio-Rad) was added to initiate a colorimetric reaction and stopped by adding 0.2 N H2SO4, and (f) measured at OD 450 nm using a spectrophotometer. IC50 values were calculated by concentration-response curve fitting using a four-parameter analytic method and reported in μM.
For Table 4B, IC50 values were calculated by concentration-response curve fitting using a four-parameter analytic method and reported in nM.

[2] = molecular target: Human wild-type receptor tyrosine kinase protein Axl (residues 505-811) (Homo sapiens (Human), UniProt P30530); details: read-out: ENZYME AXL KI; Table 4B
Human wild-type receptor tyrosine kinase protein Axl (residues 505-811), sequence (P30530 505-811): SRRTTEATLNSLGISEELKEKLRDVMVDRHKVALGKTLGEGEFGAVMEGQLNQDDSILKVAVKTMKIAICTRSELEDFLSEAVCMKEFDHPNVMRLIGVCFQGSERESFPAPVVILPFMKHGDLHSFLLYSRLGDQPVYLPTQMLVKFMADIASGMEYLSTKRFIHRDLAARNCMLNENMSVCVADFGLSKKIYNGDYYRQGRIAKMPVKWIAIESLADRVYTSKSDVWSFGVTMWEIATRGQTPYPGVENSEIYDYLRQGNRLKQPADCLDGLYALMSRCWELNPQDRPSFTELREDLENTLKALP

Axl phosphorylation in 293MSR-AxlWT6 cells, sequence (P30530 26-894): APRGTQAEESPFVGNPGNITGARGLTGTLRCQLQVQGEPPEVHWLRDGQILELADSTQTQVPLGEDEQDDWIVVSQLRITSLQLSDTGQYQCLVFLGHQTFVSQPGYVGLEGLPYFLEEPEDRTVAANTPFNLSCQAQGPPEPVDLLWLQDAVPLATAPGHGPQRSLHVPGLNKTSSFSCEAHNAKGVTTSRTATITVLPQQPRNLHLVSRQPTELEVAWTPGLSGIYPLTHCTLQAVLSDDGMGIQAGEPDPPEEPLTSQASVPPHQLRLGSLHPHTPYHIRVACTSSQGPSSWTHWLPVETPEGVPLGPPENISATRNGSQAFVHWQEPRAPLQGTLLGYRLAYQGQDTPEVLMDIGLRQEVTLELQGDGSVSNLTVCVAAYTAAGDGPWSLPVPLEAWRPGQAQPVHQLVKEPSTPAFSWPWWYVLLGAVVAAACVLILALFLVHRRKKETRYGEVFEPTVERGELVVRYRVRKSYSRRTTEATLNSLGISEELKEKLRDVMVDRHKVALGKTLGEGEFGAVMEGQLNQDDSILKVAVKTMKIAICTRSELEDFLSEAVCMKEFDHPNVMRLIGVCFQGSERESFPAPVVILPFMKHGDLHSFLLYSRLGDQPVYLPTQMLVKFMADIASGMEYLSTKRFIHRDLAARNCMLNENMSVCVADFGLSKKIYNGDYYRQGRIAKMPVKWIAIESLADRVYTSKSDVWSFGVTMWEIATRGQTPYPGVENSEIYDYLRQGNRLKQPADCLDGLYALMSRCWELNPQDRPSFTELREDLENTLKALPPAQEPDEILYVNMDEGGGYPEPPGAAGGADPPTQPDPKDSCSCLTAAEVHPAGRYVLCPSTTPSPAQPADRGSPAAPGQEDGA

Row | SMILES | IC50 ([1]; Table 4B) | Ki [2] | IC50 ([1]; Table 4A)
1 | C[C@H](NC(=O)c1nc(OCC2CC2)nc(N2CCC(COc3cc(-c4cn(C)cn4)cnc3N)CC2)n1)C(F)(F)F [Example 391, 4-[4-({[2-amino-5-(1-methyl-1H-imidazol-4-yl)pyridin-3-yl]oxy}methyl)piperidin-1-yl]-6-(cyclopropylmethoxy)-N-[(2S)-1,1,1-trifluoropropan-2-yl]-1,3,5-triazine-2-carboxamide] | 0.143 nM | < 0.013 nM | –
2 | COc1ccnc2[nH]nc(C3CCN(c4nc(OC[C@H]5C[C@H]5C#N)nc(C(=O)NC5CCC5)n4)CC3)c12 [Example 501, 4-{[(1S,2R)-2-cyanocyclopropyl]methoxy}-N-cyclobutyl-6-[4-(4-methoxy-1H-pyrazolo[3,4-b]pyridin-3-yl)piperidin-1-yl]-1,3,5-triazine-2-carboxamide] | 1.07 nM | < 0.412 nM | –
3 | COc1ccnc2[nH]cc(C3CCN(c4cc(C(=O)N[C@H](C)CO)nc(OC[C@H]5CCCO5)n4)CC3)c12 [Example 459, N-[(2R)-1-hydroxypropan-2-yl]-6-[4-(4-methoxy-1H-pyrrolo[2,3-b]pyridin-3-yl)piperidin-1-yl]-2-[(2R)-tetrahydrofuran-2-ylmethoxy]pyrimidine-4-carboxamide] | 0.272 nM | < 0.013 nM | –
4 | COc1ccnc2[nH]nc(C3CCN(c4cc(C(=O)N[C@H](C)CO)nc(OCc5ccccc5)n4)CC3)c12 [Example 415, 2-(benzyloxy)-N-[(2R)-1-hydroxypropan-2-yl]-6-[4-(4-methoxy-1H-pyrazolo[3,4-b]pyridin-3-yl)piperidin-1-yl]pyrimidine-4-carboxamide] | 0.052 nM | < 0.013 nM | –
5 | COc1ccnc2[nH]cc(C3CCN(c4nc(OC[C@H]5C[C@H]5C#N)nc(C(=O)NC56CC(C5)C6)n4)CC3)c12 (single isomer, unassigned) [Example 504] | 0.125 nM | < 0.082 nM | –
6 | COc1ccnc2[nH]cc(C3CCN(c4cc(C(=O)N[C@H](C)CO)nc(OCC5(C#N)CC5)n4)CC3)c12 [Example 387, 2-[(1-cyanocyclopropyl)methoxy]-N-[(2R)-1-hydroxypropan-2-yl]-6-[4-(4-methoxy-1H-pyrrolo[2,3-b]pyridin-3-yl)piperidin-1-yl]pyrimidine-4-carboxamide] | 0.152 nM | < 0.018 nM | –
7 | COC[C@@H](C)Oc1nc(C(=O)NC2CCC2)nc(N2CCC(c3c[nH]c4nccc(OC)c34)CC2)n1 [Example 502, N-cyclobutyl-4-{[(2R)-1-methoxypropan-2-yl]oxy}-6-[4-(4-methoxy-1H-pyrrolo[2,3-b]pyridin-3-yl)piperidin-1-yl]-1,3,5-triazine-2-carboxamide] | 0.132 nM | < 0.082 nM | –
8 | COC[C@@H](C)Oc1nc(C(=O)NC2CCC2)cc(N2CCC(c3cccc(C(N)=O)n3)CC2)n1 [Example 11, 6-[4-(6-carbamoylpyridin-2-yl)piperidin-1-yl]-N-cyclobutyl-2-{[(2R)-1-methoxypropan-2-yl]oxy}pyrimidine-4-carboxamide] | – | – | 10.2 nM
9 | C[C@H](CO)NC(=O)c1cc(N2CCC(c3c[nH]c4ncccc34)CC2)nc(OC[C@H]2C[C@H]2C#N)n1 [Example 51, 2-{[(1S,2R)-2-cyanocyclopropyl]methoxy}-N-[(2R)-1-hydroxypropan-2-yl]-6-[4-(1H-pyrrolo[2,3-b]pyridin-3-yl)piperidin-1-yl]pyrimidine-4-carboxamide] | – | – | 7.89 nM
10 | CS(=O)(=O)COc1cnc2[nH]nc(C3CCN(c4cc(C(=O)NC56CC(C5)C6)nc(OC[C@H]5C[C@H]5C#N)n4)CC3)c2c1 [Example 77, N-(bicyclo[1.1.1]pent-1-yl)-2-{[(1S,2R)-2-cyanocyclopropyl]methoxy}-6-(4-{5-[(methylsulfonyl)methoxy]-1H-pyrazolo[3,4-b]pyridin-3-yl}piperidin-1-yl)pyrimidine-4-carboxamide] | – | – | 42.8 nM
11 | C[C@H](NC(=O)c1cc(N2CCC(c3cccc(C(N)=O)n3)CC2)nc(OCC2(C#N)CC2)n1)C(F)(F)F [Example 13, 6-[4-(6-carbamoylpyridin-2-yl)piperidin-1-yl]-2-[(1-cyanocyclopropyl)methoxy]-N-[(2S)-1,1,1-trifluoropropan-2-yl]pyrimidine-4-carboxamide] | – | – | 59 nM
12 | COC[C@@H](C)Oc1nc(C(=O)NC23CC(C2)C3)cc(N2CCC(COc3nc(C)cnc3N)CC2)n1 [Example 24, 6-(4-{[(3-amino-6-methylpyrazin-2-yl)oxy]methyl}piperidin-1-yl)-N-(bicyclo[1.1.1]pent-1-yl)-2-{[(2R)-1-methoxypropan-2-yl]oxy}pyrimidine-4-carboxamide] | – | – | 1.92 nM
13 | COC[C@@H](C)Oc1nc(C(=O)NC2CCC2)nc(N2CCC(c3ccc(N)c(C(N)=O)n3)CC2)n1 [Example 40, 4-[4-(5-amino-6-carbamoylpyridin-2-yl)piperidin-1-yl]-N-cyclobutyl-6-{[(2R)-1-methoxypropan-2-yl]oxy}-1,3,5-triazine-2-carboxamide] | – | – | 5.77 nM
14 | COc1ccnc2[nH]cc(C3CCN(c4nc(OC[C@H]5C[C@H]5C#N)nc(C(=O)N[C@@H](C)C(F)(F)F)n4)CC3)c12 [Example 379, 4-{[(1S,2R)-2-cyanocyclopropyl]methoxy}-6-[4-(4-methoxy-1H-pyrrolo[2,3-b]pyridin-3-yl)piperidin-1-yl]-N-[(2S)-1,1,1-trifluoropropan-2-yl]-1,3,5-triazine-2-carboxamide] | – | – | 0.2 nM
15 | CN(C)CCOc1ccc(C(N)=O)nc1C1CCN(c2cc(C(=O)NC3CCC3)nc(OC[C@@H]3C[C@@H]3C#N)n2)CC1 [Example 37, 6-(4-{6-carbamoyl-3-[2-(dimethylamino)ethoxy]pyridin-2-yl}piperidin-1-yl)-2-{[(1R,2S)-2-cyanocyclopropyl]methoxy}-N-cyclobutyl-pyrimidine-4-carboxamide] | – | – | 242 nM
16 | N#C[C@@H]1C[C@@H]1COc1nc(C(=O)NC23CC(C2)C3)cc(N2CCC(c3n[nH]c4ncccc34)C(F)C2)n1 (single isomer, unassigned) [Example 74] | – | – | 15.5 nM
17 | COC[C@@H](C)Oc1nc(C(=O)NC23CC(C2)C3)nc(N2CCC(c3c[nH]c4nccc(OC)c34)CC2)n1 (single isomer, unassigned) [Example 505] | 0.409 nM | < 0.082 nM | –
18 | CC(C)(C)NC(=O)c1cc(N2CCC(c3n[nH]c4ncncc34)CC2)nc(OC[C@H]2C[C@H]2C#N)n1 [Example 48, N-tert-butyl-2-{[(1S,2R)-2-cyanocyclopropyl]methoxy}-6-[4-(1H-pyrazolo[3,4-d]pyrimidin-3-yl)piperidin-1-yl]pyrimidine-4-carboxamide] | – | – | 38.1 nM

From patent publication US9593097B2, “Axl inhibitors” (Pfizer Inc., priority 2014, dated 2017)
